Reference: US20230129866A1 (PureTech LYT 100, Inc., priority 2020, published 2023)

How the values were obtained:
L929 cells = test: TGF-induced collagen synthesis in L929 cells, 6-wells (SIRCOL); format: cell-based; conditions: 72 hrs, FIG. 4B
Method: 100,000 L929 cells were plated in complete DMEN and incubated until confluency for 3 days. Medium was removed and complete DMEM containg Prolin ([…]) and ascorbic acid (10 μM) was added. […] Cells were further incubated for 72 hrs. Supernatant was removed, cells were washed with cold PBS, 1 ml SIRCOL reagent was added onto the cells and cells were scraped off, samples were shaken for 5 h.at RT, centrifuged at 10.000 rpm for 5 min, supernatant was removed, pellet was dissolved in 0.5 M acetic acid to remove unbound dye, and re-centrifuged at 10.000 rpm for 5 min, supernatant was removed and final pelet was dissolved in 1 ml 0.5M NaOH, shaken at RT for 5 h, 100 μl of resulted solution was placed in 96-well and O.D was determined at 600.

LPS-induced plasma IL-6 = LPS-induced plasma IL-6 after oral pretreatment in rats; format: in vivo, Sprague-Dawley rats; conditions: Mean ± St. Dev, n = 6-8; for Plasma IL-6 concentrations 4 hours after LPS: vehicle 13989 ± 6125; for Plasma IL-6 concentrations 1.5 hours after LPS: vehicle 40423 ± 8653
Method: LPS was diluted with sterile saline to […] and sonicated at 40° C. for 20 minutes to generate a stock solution and stored at 4° C. Each day of use, the stock solution was further diluted to 0.03 mg/mL in sterile saline.
Male Sprague-Dawley rats with indwelling femoral and jugular venous catheters (n=6-8 per dose and test article group) were used in this study. […] Sixty minutes after the oral dose, 0.03 mg/kg of LPS in 1 mL/kg saline was infused into the jugular vein.
Blood samples were collected from the femoral vein into heparin-coated syringes 15 minutes prior to the LPS infusion (45 minutes after oral doses of test article), 90 minutes after the LPS infusion and 4 hours after the LPS infusion. Plasma was prepared by centrifugation of the blood samples at 14,000 rpm for 10 minutes. Plasma samples were stored at −70 ° C. until analysis.

[1] = 30 mg/kg oral pretreatment 1 hour prior to LPS injection
[2] = 100 mg/kg oral pretreatment 1 hour prior to LPS injection
[3] = 300 mg/kg oral pretreatment 1 hour prior to LPS injection

[2H]C([2H])([2H])c1ccc(=O)n(-c2ccccc2)c1 [LYT-100, 5-(methyl-d3)-1-phenylpyridin-2-(1H)-one]
Effect on TGF-induced collagen synthesis (L929 cells; 500 μM 1 hour prior to TGF-β 5 ng/ml): inhibits | Effect on collagen synthesis in the absence of added TGF-β (L929 cells; 500 μM): significantly inhibits | Plasma IL-6 concentrations 4 hours after LPS (LPS-induced plasma IL-6; [1]): 8174 ± 5504 pg/mL | Plasma IL-6 concentrations 1.5 hours after LPS (LPS-induced plasma IL-6; [1]): 18197 ± 6484 pg/mL | Plasma IL-6 concentrations 4 hours after LPS (LPS-induced plasma IL-6; [2]): 4632 ± 5930 pg/mL | Plasma IL-6 concentrations 1.5 hours after LPS (LPS-induced plasma IL-6; [2]): 21642 ± 17174 pg/mL | Plasma IL-6 concentrations 4 hours after LPS (LPS-induced plasma IL-6; [3]): 1550 ± 1414 pg/mL | Plasma IL-6 concentrations 1.5 hours after LPS (LPS-induced plasma IL-6; [3]): 13519 ± 8674 pg/mL
